Test results taken from publication PMC12062876, “Efficient constitution of a library of rotenoid analogs active against Trypanosoma cruzi from a digitalized plant extract collection” (RSC Advances, 2025).
Like-named read-outs stand apart in the source and are kept apart here.

What was measured:
[1] = test system: L6 cells (rat skeletal myoblast); conditions: commercial standards; cited from earlier work
T. cruzi amastigotes [2] = experiment: Activity against intracellular T. cruzi amastigotes; type: cell-based, Trypanosoma cruzi; conditions: for Selectivity index: SI = IC50 cytotoxicity/IC50 against T. cruzi; for IC50: read-out: IC50 T. cruzi amastigotes
Text: The bioactivity of isolated compounds against intracellular T. cruzi amastigotes grown in rat L6 […] is presented in Table 1. […] Rotenone and deguelin are known to be strong mitochondrial complex I (also known as NADH:ubiquinone oxidoreductase) inhibitors,[43–45] while different activities between closely related rotenoids (rotenone, 5′-α-epirotenone, and 5′-β-epirotenone) has already been shown. […] The variation in activity observed on our rapidly generated series of structural analogs points in the same direction. As shown in Fig. 3 and Table 1, the cyclic and bent form of the rotenoid at the B/C ring junction is essential for activity, since compounds 40 and 41 were not active.
The pure compounds activity was assessed against T. cruzi amastigotes as described in ref. [27].

T. cruzi amastigotes [3] = conditions: commercial standards; cited from earlier work
[4] = Cytotoxicity assay: L-6 cells; type: cell-based; conditions: rat skeletal myoblast (L6 cells); means of two independent assays
Method: (§1) The pure compounds cytotoxicity was assessed against L6 cells as described in ref. [27].

Haemonchus contortus = conditions: cited from earlier work
[5] = test system: L6 cells (rat skeletal myoblast); experiment: Cytotoxicity assay: L-6 cells; type: cell-based; conditions: means of two independent assays
Method: as §1

[6] = Trypanosoma cruzi, intracellular amastigotes grown in rat L6 cells, means of two independent assays
[7] = Trypanosoma cruzi, L6, in Rattus norvegicus

Row | Compound | toxicity to the host cell [1] | Selectivity index (T. cruzi amastigotes [2]) | IC50 (T. cruzi amastigotes [2]; [6]) | IC50 against the amastigote form of the parasite (T. cruzi amastigotes [3]) | IC50 [4] | nematocidal activity (Haemonchus contortus) | IC50 (T. cruzi amastigotes [2]; intracellular amastigotes grown in rat L6 cells, means of two independent assays) | IC50 [5] | IC50 (T. cruzi amastigotes [2]; [7])
1 | COc1cc2c(cc1OC)[C@@H]1C(=O)c3ccc4c(c3O[C@@H]1CO2)C=CC(C)(C)O4 [Compound 39, deguelin] | without toxicity | 1148.5 | 0.02 µM | nanomolar | 19.4 µM | potent nematocidal activity |  |  | 
2 | medicarpin [Compound 15] |  |  |  |  |  |  | 202 µM | 226 µM | 
3 | C=C(C)[C@H]1Cc2c(ccc3c2O[C@@H]2COc4cc(OC)c(OC)cc4[C@@H]2C3=O)O1 [Compound 37, rotenone] | without toxicity | 51.7 |  | nanomolar | 0.48 µM | potent nematocidal activity |  |  | 0.01 µM
4 | CC(=O)OC(C1COc2ccc3c(c21)OC(c1ccc(O)cc1)CC3=O)C(C)(C)O (centres unmarked) [Compound 12, 2-hydroxy-1-(2-(4-hydroxyphenyl)-4-oxo-3,4,8,9-tetrahydro-2H-furo[2,3-h]chromen-9-yl)-2-methylpropyl acetate] |  | 1.7 | 58.8 µM |  | 99.4 µM |  |  |  | 
5 | COc1cc(O)ccc1[C@@H]1COc2cc(O)c(CC=C(C)C)cc2C1 [Compound 1, 2′-O-methylmanuifolin H] |  | 3.5 | 28.2 µM |  | 99 µM |  |  |  | 
6 | CC(C)=CCc1c(O)cc2occ(-c3ccc(O)cc3)c(=O)c2c1O [Compound 27, wighteone] |  | 2.2 | 46.6 µM |  | 104 µM |  |  |  | 
7 | COc1ccc(-c2coc3cc(OC)c(O)cc3c2=O)cc1 [Compound 25, alfalone] |  | 1.1 | 241 µM |  | 263 µM |  |  |  | 
8 | O=c1cc(-c2ccccc2)oc2c1ccc1occc12 [Compound 10, lanceolatin B] |  | 13.6 |  |  | 130 µM |  |  |  | 9.58 µM
9 | O=C1c2cc3ccoc3cc2O[C@@H]2COc3cc4c(cc3[C@]12O)OCO4 (relative stereo) [Compound 30, 12a-hydroxydolineone] |  | 0.7 | 195 µM |  | 141 µM |  |  |  | 
